Consider four compounds from ChEMBL document CHEMBL1201862, “PubChem BioAssay data set” (2004).

Some test systems named below: SR; SF-295; MOLT-4; SF-539; SNB-75; HOP-62; UO-31; K562; OVCAR-4; U-251; MDA-N; COLO 205; PC-3; UACC-62; HCC 2998; SK-MEL-5; MDA-MB-435; T47D; SK-MEL-28; Malme-3M.
What all share (test): NCI anticancer screen, dose series, 48 h

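How tested: cells in 96-well plates exposed to compound for 48 hours at five concentrations. GI50 marks 50% less growth.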 Active and inactive are the calls of the source. Rule as the data show it: active = GI50 up to about 1.1 µM and inactive = higher.

As to `COc1cc(C2c3cc4c(cc3OC(NNC(N)=O)C2C)OCO4)cc(OC)c1O` (stereo not given), the GI50 is 1.12 µM (active) in the experiment with SR; 1.04 µM (active) in the experiment on SF-295; 2.58 µM (inactive) in the experiment on MOLT-4; 0.933 µM (active) in the experiment on SF-539; 0.805 µM (active) in the experiment with SNB-75; 5.48 µM (inactive) in the experiment with HOP-62. Further, the GI50 was 8.04 µM (inactive) in the experiment with UO-31; 0.433 µM (active) in the experiment with K562; > 43.9 µM (inactive) in the experiment with OVCAR-4; 2.1 µM (inactive) in the experiment on U-251; 0.274 µM (active) with MDA-N; 2.59 µM (inactive) in the experiment on COLO 205. Also, the GI50 with PC-3 is 1.67 µM (inactive); in the experiment on UACC-62 it was 0.512 µM (active); in the experiment with HCC 2998 it was 2.54 µM (inactive); in the experiment with SK-MEL-5 it was 0.91 µM (active); in the experiment on MDA-MB-435, 0.324 µM (active); in the experiment on T47D it was > 100 µM (inactive). In addition, the values for the GI50 in the experiment on SK-MEL-28 and in the experiment with Malme-3M were 27.4 µM (inactive) and 0.615 µM (active), respectively.

Regarding `CC12CC3OC(=O)C1COC14OC5(C2C1=O)C(O)(CCC1C4CC2OC24CC=CC(=O)C14C)C(=O)OC35C` (stereo not given), the GI50 in the experiment on SR was 8.85 µM (inactive); in the experiment with SF-295, 24.8 µM (inactive); with MOLT-4 it was 15.5 µM (inactive); in the experiment with SF-539, 12.6 µM (inactive); in the experiment on SNB-75, 76.7 µM (inactive); with HOP-62, 20.9 µM (inactive). The GI50 in the experiment with UO-31 is 16.9 µM (inactive); with K562, 12.8 µM (inactive); in the experiment on OVCAR-4 it was 66.2 µM (inactive); in the experiment on U-251, 14.5 µM (inactive); with MDA-N it was 12.4 µM (inactive); with COLO 205, 10.3 µM (inactive). Further, the GI50 is 20.3 µM (inactive) in the experiment on PC-3; 13.2 µM (inactive) in the experiment with UACC-62; 18.7 µM (inactive) with HCC 2998; 3.88 µM (inactive) with SK-MEL-5; 13.6 µM (inactive) in the experiment on MDA-MB-435; 15.7 µM (inactive) in the experiment with T47D. For the same compound, the GI50 is 8.47 µM (inactive) in the experiment with SK-MEL-28 and 18.5 µM (inactive) in the experiment on Malme-3M.

For `COc1ccc(/C(C)=N/OC(=O)c2c(-c3ccccc3Cl)noc2C)cc1CN1CCOCC1`, the GI50 with SR was 25 µM (inactive); in the experiment with SF-295, 11.5 µM (inactive); in the experiment with MOLT-4, 24 µM (inactive); in the experiment on SF-539, 24.8 µM (inactive); in the experiment on SNB-75, 28.4 µM (inactive); with HOP-62 it was 19.1 µM (inactive). The GI50 is 3.75 µM (inactive) with UO-31; 28.2 µM (inactive) in the experiment with K562; 29.4 µM (inactive) in the experiment with OVCAR-4; 25.4 µM (inactive) in the experiment with U-251; 18.8 µM (inactive) in the experiment with MDA-N; 16.2 µM (inactive) in the experiment with COLO 205. The GI50 is 24.2 µM (inactive) in the experiment with PC-3; 15 µM (inactive) in the experiment on UACC-62; 30.5 µM (inactive) in the experiment with HCC 2998; 17.3 µM (inactive) in the experiment on SK-MEL-5; 20.8 µM (inactive) in the experiment on MDA-MB-435; 16.4 µM (inactive) in the experiment on T47D. Further, the GI50 with SK-MEL-28 was 19.7 µM (inactive); in the experiment on Malme-3M it was 21.2 µM (inactive).

For `C=C1C(=O)O[C@H]2C/C(C)=C/CC/C(C)=C/CC[C@@](C)(O)[C@@H](I)C[C@@H]12`, the GI50 is 2.67 µM (inactive) with SR; 18.4 µM (inactive) with SF-295; 2.37 µM (inactive) in the experiment on MOLT-4; 4 µM (inactive) in the experiment with SF-539; 11 µM (inactive) in the experiment on SNB-75; 16.4 µM (inactive) in the experiment with HOP-62. The GI50 in the experiment with UO-31 was 11.7 µM (inactive); with K562 it was 2.94 µM (inactive); with OVCAR-4, 4.94 µM (inactive); with U-251, 13.6 µM (inactive); in the experiment on MDA-N, 3.33 µM (inactive); with COLO 205, 9.44 µM (inactive). Besides, the GI50 is 8.26 µM (inactive) in the experiment with PC-3; 11.3 µM (inactive) with UACC-62; 12.5 µM (inactive) with HCC 2998; 11.8 µM (inactive) with SK-MEL-5; 4.6 µM (inactive) in the experiment on MDA-MB-435; 11.7 µM (inactive) in the experiment on T47D. Further, the GI50 with SK-MEL-28 is 13.6 µM (inactive); in the experiment on Malme-3M, 4.49 µM (inactive).
